Assays:
[1] = system: blackgrass; assay: Test B pre/postemergence blackgrass; format: in vivo, Alopecurus myosuroides
How it was run: (§1)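 Herbicidal effect was estimated by eye on a ten-point control scale after plants spent twelve to sixteen days in a greenhouse following soil or foliar treatment. Foliar sprays targeted plants at one to four leaves; all doses were formulated in a non-phytotoxic solvent with surfactant.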

[2] = system: surinam grass; assay: Test B pre/postemergence surinam grass; format: in vivo, Brachiaria decumbens
How it was run: as §1

[3] = system: cocklebur; assay: Test B pre/postemergence cocklebur; format: in vivo, Xanthium strumarium
How it was run: as §1

[4] = system: corn; assay: Test B pre/postemergence corn; format: in vivo, Zea mays
How it was run: as §1

[5] = system: crabgrass; assay: Test B pre/postemergence crabgrass; format: in vivo, Digitaria sanguinalis
How it was run: as §1

[6] = system: giant foxtail; assay: Test B pre/postemergence giant foxtail; format: in vivo, Setaria faberii
How it was run: as §1

[7] = system: morningglory; assay: Test B pre/postemergence morningglory; format: in vivo, Ipomoea hederacea; conditions: for Plant response rating, Morningglory: scale of 0 to 10 where 0 is no effect and 10 is complete control
How it was run: as §1

[8] = system: pigweed; assay: Test B pre/postemergence pigweed; format: in vivo, Amaranthus retroflexus; conditions: for Plant response rating, Redroot pigweed: scale of 0 to 10 where 0 is no effect and 10 is complete control
How it was run: as §1

[9] = system: rape; assay: Test B pre/postemergence rape; format: in vivo, Brassica napus; conditions: for Plant response rating, Rape: scale of 0 to 10 where 0 is no effect and 10 is complete control
How it was run: as §1

[10] = system: soybean; assay: Test B pre/postemergence soybean; format: in vivo, Glycine max; conditions: for Plant response rating, Soybean: scale of 0 to 10 where 0 is no effect and 10 is complete control
How it was run: as §1

[11] = system: sugar beet; assay: Test B pre/postemergence sugar beet; format: in vivo, Beta vulgaris; conditions: for Plant response rating, Sugarbeets: scale of 0 to 10 where 0 is no effect and 10 is complete control
How it was run: as §1

[12] = system: velvetleaf; assay: Test B pre/postemergence velvetleaf; format: in vivo, Abutilon theophrasti; conditions: for Plant response rating, Velvetleaf: scale of 0 to 10 where 0 is no effect and 10 is complete control
How it was run: as §1

[13] = system: wheat; assay: Test B pre/postemergence wheat; format: in vivo, Triticum aestivum; conditions: for Plant response rating, Wheat: scale of 0 to 10 where 0 is no effect and 10 is complete control
How it was run: as §1

[14] = system: wild oat; assay: Test B pre/postemergence wild oat; format: in vivo, Avena fatua; conditions: for Plant response rating, Wild oats: scale of 0 to 10 where 0 is no effect and 10 is complete control
How it was run: as §1

[15] = system: purple nutsedge; assay: Test B pre/postemergence purple nutsedge; format: in vivo, Cyperus rotundus; conditions: for Plant response rating, Nutsedge: scale of 0 to 10 where 0 is no effect and 10 is complete control
How it was run: as §1

[16] = system: rice; assay: Test B flood test rice; format: in vivo, Oryza sativa
How it was run: (§2)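 Each value is a visual injury score relative to controls, with 10 meaning complete control and 0 no effect. Evaluation took place twelve to sixteen days after the 2-leaf-stage plants were treated and kept in the greenhouse.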

[17] = system: smallflower flatsedge; assay: Test B flood test smallflower flatsedge; format: in vivo, Cyperus difformis
How it was run: as §2

[18] = system: duck salad; assay: Test B flood test duck salad; format: in vivo, Heteranthera limosa
How it was run: as §2

[19] = system: bamyardgrass; assay: Test B flood test barnyardgrass; format: in vivo, Echinochloa crus-galli
How it was run: as §2

[20] = Postemergence, Rate 250 g/ha, scale 0 to 10
[21] = Postemergence, Rate 500 g/ha, scale of 0 to 10 where 0 is no effect and 10 is complete control
[22] = Preemergence, Rate 62 g/ha, scale of 0 to 10 where 0 is no effect and 10 is complete control
[23] = Preemergence, Rate 125 g/ha, scale of 0 to 10 where 0 is no effect and 10 is complete control
[24] = Preemergence, Rate 250 g/ha, scale 0 to 10, 0 is no effect, 10 is complete control
[25] = Preemergence, Rate 500 g/ha, scale 0 to 10, 0 is no effect, 10 is complete control
[26] = Rate 62 g/ha, Postemergence, scale 0 to 10 (0 no effect, 10 complete control)
[27] = Rate 125 g/ha, Postemergence, scale 0 to 10, 0 is no effect, 10 is complete control
[28] = Rate 62 g/ha, flood test species, Pre-emergence, visual evaluation after twelve to sixteen days
[29] = Rate 125 g/ha, under heading Pre-emergence, flood test species, visual evaluation after twelve to sixteen days
[30] = Rate 250 g/ha, Pre-emergence (flood test species), scale 0 to 10, 0 is no effect, 10 is complete control
[31] = Rate 500 g/ha, Pre-emergence, flood test species, scale 0 to 10 (0 no effect, 10 complete control)

COC(OC)C(C)n1c(=O)on(C(=O)N(c2ccc(F)cc2F)C(C)C)c1=O (stereo not shown) [Compound 472]
3: Plant response rating, B. signalgrass [2, 22] | Corn plant response rating [4, 21] | Morningglory plant response rating [7, 26] | Morningglory plant response rating [7, 27] | Redroot pigweed plant response rating [8, 20] | Soybean plant response rating [10, 25] | Sugarbeets plant response rating [11, 24] | Plant response rating, Velvetleaf ([12]; Preemergence, Rate 125 g/ha) | Velvetleaf plant response rating [12, 24]
6: Sugarbeets plant response rating [11, 25]
1: Cocklebur plant response rating [3, 21] | Plant response rating, Sugarbeets ([11]; Preemergence, Rate 62 g/ha) | Plant response rating, Velvetleaf ([12]; Preemergence, Rate 62 g/ha)
10: Blackgrass plant response rating [1, 24] | Blackgrass plant response rating [1, 25] | B. signalgrass plant response rating [2, 25] | Crabgrass plant response rating [5, 24] | Crabgrass plant response rating [5, 25] | Plant response rating, Giant foxtail [6, 22] | Plant response rating, Giant foxtail [6, 23] | Giant foxtail plant response rating [6, 24] | Giant foxtail plant response rating [6, 25] | Plant response rating, Redroot pigweed ([8]; Preemergence, Rate 62 g/ha) | Plant response rating, Redroot pigweed ([8]; Preemergence, Rate 125 g/ha) | Redroot pigweed plant response rating [8, 24] | Redroot pigweed plant response rating [8, 25] | Wild oats plant response rating [14, 25] | Nutsedge plant response rating [15, 25]
8: Blackgrass plant response rating [1, 21] | Crabgrass plant response rating [5, 20] | Crabgrass plant response rating [5, 21] | Giant foxtail plant response rating [6, 20] | Giant foxtail plant response rating [6, 21] | Wild oats plant response rating [14, 24]
0: Blackgrass plant response rating [1, 26] | Blackgrass plant response rating [1, 27] | B. signalgrass plant response rating [2, 26] | B. signalgrass plant response rating [2, 27] | Cocklebur plant response rating [3, 20] | Plant response rating, Cocklebur [3, 22] | Plant response rating, Cocklebur [3, 23] | Cocklebur plant response rating [3, 24] | Cocklebur plant response rating [3, 26] | Cocklebur plant response rating [3, 27] | Corn plant response rating [4, 20] | Plant response rating, Corn [4, 22] | Plant response rating, Corn [4, 23] | Corn plant response rating [4, 26] | Corn plant response rating [4, 27] | Plant response rating, Morningglory ([7]; Preemergence, Rate 62 g/ha) | Plant response rating, Morningglory ([7]; Preemergence, Rate 125 g/ha) | Morningglory plant response rating [7, 24] | Redroot pigweed plant response rating [8, 26] | Rape plant response rating [9, 20] | Plant response rating, Rape ([9]; Preemergence, Rate 62 g/ha) | Plant response rating, Rape ([9]; Preemergence, Rate 125 g/ha) | Rape plant response rating [9, 24] | Rape plant response rating [9, 26] | Rape plant response rating [9, 27] | Plant response rating, Soybean ([10]; Preemergence, Rate 62 g/ha) | Plant response rating, Soybean ([10]; Preemergence, Rate 125 g/ha) | Soybean plant response rating [10, 24] | Sugarbeets plant response rating [11, 20] | Sugarbeets plant response rating [11, 26] | Sugarbeets plant response rating [11, 27] | Velvetleaf plant response rating [12, 26] | Velvetleaf plant response rating [12, 27] | Wheat plant response rating [13, 20] | Plant response rating, Wheat ([13]; Preemergence, Rate 62 g/ha) | Plant response rating, Wheat ([13]; Preemergence, Rate 125 g/ha) | Wheat plant response rating [13, 24] | Wheat plant response rating [13, 25] | Wheat plant response rating [13, 26] | Wheat plant response rating [13, 27] | Wild oats plant response rating [14, 20] | Wild oats plant response rating [14, 26] | Wild oats plant response rating [14, 27] | Nutsedge plant response rating [15, 20] | Plant response rating, Nutsedge ([15]; Preemergence, Rate 62 g/ha) | Plant response rating, Nutsedge ([15]; Preemergence, Rate 125 g/ha) | Nutsedge plant response rating [15, 24] | Nutsedge plant response rating [15, 26] | Nutsedge plant response rating [15, 27] | Plant response rating, Rice (0 to 10 scale, 0 is no effect, 10 is complete control) [16, 28] | Rice plant response rating (0 to 10 scale, 0 is no effect, 10 is complete control) [16, 29] | Rice plant response rating [16, 30] | Rice plant response rating [16, 31] | Plant response rating, S. Flatsedge (0 to 10 scale, 0 is no effect, 10 is complete control) [17, 28] | S. Flatsedge plant response rating (0 to 10 scale, 0 is no effect, 10 is complete control) [17, 29] | S. Flatsedge plant response rating [17, 30] | S. Flatsedge plant response rating [17, 31] | Plant response rating, Ducksalad (0 to 10 scale, 0 is no effect, 10 is complete control) [18, 28] | Ducksalad plant response rating (0 to 10 scale, 0 is no effect, 10 is complete control) [18, 29] | Ducksalad plant response rating [18, 30] | Ducksalad plant response rating [18, 31] | Plant response rating, Barnyardgrass (0 to 10 scale, 0 is no effect, 10 is complete control) [19, 28] | Barnyardgrass plant response rating (0 to 10 scale, 0 is no effect, 10 is complete control) [19, 29] | Barnyardgrass plant response rating [19, 30] | Barnyardgrass plant response rating [19, 31]
7: Corn plant response rating [4, 25] | Crabgrass plant response rating [5, 26] | Crabgrass plant response rating [5, 27] | Giant foxtail plant response rating [6, 26] | Giant foxtail plant response rating [6, 27] | Velvetleaf plant response rating [12, 25]
9: Plant response rating, Blackgrass [1, 22] | Plant response rating, Blackgrass [1, 23] | Plant response rating, B. signalgrass [2, 23] | B. signalgrass plant response rating [2, 24] | Plant response rating, Crabgrass [5, 22] | Plant response rating, Crabgrass [5, 23]
4: Morningglory plant response rating [7, 20] | Rape plant response rating [9, 25]
2: Blackgrass plant response rating [1, 20] | B. signalgrass plant response rating ([2]; Postemergence, Rate 250 g/ha, scale 0 to 10, 0 no effect, 10 complete control) | Cocklebur plant response rating [3, 25] | Corn plant response rating [4, 24] | Redroot pigweed plant response rating [8, 27] | Soybean plant response rating [10, 20] | Soybean plant response rating [10, 26] | Soybean plant response rating [10, 27] | Plant response rating, Sugarbeets ([11]; Preemergence, Rate 125 g/ha) | Velvetleaf plant response rating [12, 20] | Plant response rating, Wild oats ([14]; Preemergence, Rate 62 g/ha)
5: B. signalgrass plant response rating [2, 21] | Morningglory plant response rating [7, 25] | Plant response rating, Wild oats ([14]; Preemergence, Rate 125 g/ha)

Reference: patent US6737383B1, “Herbicidal oxadiazolidines” (priority 1999, dated 2004)
